Results from article PMC6150295, “Synthesis and Biological Evaluation of 2H-Indazole Derivatives: Towards Antimicrobial and Anti-Inflammatory Dual Agents” (Molecules : A Journal of Synthetic Chemistry and Natural …, 2017).
In brackets after ≈: the same amount, converted by molar mass. Like-named read-outs stand apart in the source and are kept apart here.

Assays:
[1] = system: C. glabrata; assay: Minimum inhibitory concentration (antimycotic effect); assay type: cell-based, Candida glabrata; conditions: Nakaseomyces glabratus
[2] = system: Candida albicans; assay: Disk diffusion susceptibility test; assay type: cell-based; conditions: for zone of inhibition at 5000 µg/disc: Candida albicans, read-out: Zone of inhibition at 5 mg per disc (mm) C. albicans
[3] = system: C. albicans; assay: Minimum inhibitory concentration (antimycotic effect); assay type: cell-based; conditions: Candida albicans
[4] = system: Candida glabrata; assay: Disk diffusion susceptibility test; assay type: cell-based; conditions: for zone of inhibition at 5000 µg/disc: Nakaseomyces glabratus, read-out: Zone of inhibition at 5 mg per disc (mm) C. glabrata
[5] = system: Escherichia coli strain EDL933 (EHEC); assay: Disk diffusion susceptibility test; assay type: cell-based; conditions: 5 mg per disc, 37 °C, 24 h
[6] = target: T1, human recombinant cyclooxygenase-2 (Homo sapiens, UniProt P35354); assay: COX inhibitor screening assay (Cayman kit); assay type: biochemical; conditions: tested at 10 µM
T1 construct: purchased Cayman Chemical 560131
T1 sequence (P35354 18-604): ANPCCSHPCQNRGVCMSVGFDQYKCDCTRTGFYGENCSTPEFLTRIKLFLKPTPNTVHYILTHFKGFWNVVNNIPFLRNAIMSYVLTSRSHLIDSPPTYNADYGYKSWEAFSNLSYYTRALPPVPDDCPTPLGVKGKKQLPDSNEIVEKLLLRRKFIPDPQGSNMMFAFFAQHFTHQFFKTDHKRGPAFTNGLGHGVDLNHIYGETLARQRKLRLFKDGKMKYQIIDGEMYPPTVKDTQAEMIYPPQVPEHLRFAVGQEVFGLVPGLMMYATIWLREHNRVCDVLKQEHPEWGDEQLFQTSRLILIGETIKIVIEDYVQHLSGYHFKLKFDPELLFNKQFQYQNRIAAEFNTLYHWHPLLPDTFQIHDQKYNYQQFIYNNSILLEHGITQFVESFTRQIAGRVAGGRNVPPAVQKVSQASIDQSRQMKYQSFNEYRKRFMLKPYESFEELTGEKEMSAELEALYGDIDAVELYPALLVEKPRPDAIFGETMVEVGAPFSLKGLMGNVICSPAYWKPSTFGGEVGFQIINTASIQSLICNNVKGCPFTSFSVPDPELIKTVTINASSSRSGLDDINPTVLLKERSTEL
Description: Additionally, molecular docking studies using AutoDock Vina software (TSRI, La Jolla, CA, USA) were performed to aid in the interpretation of the experimental results. […] Nevertheless, these compounds represent an interesting starting point towards the design of new antiparasitic compounds with an additional COX-2 inhibitory property.
Assays were carried out by duplicate following the instructions provided by the manufacturer.

[7] = system: Entamoeba histolytica strain HM1-IMSS; assay: In vitro antiprotozoal assay (trophozoite subculture method); assay type: cell-based; conditions: for IC50: Entamoeba histolytica, trophozoites, 48 h with compound then 48 h subculture without drug, read-out: IC50 (µM) E. histolytica
Description: (§1) The in vitro antiprotozoal assays against E. histolytica, G. intestinalis, and T. vaginalis of the 2-phenyl-2H-indazole and 2,3-diphenyl-2H-indazole derivatives were carried out following the method previously described. Metronidazole (MTZ) and albendazole (ABZ) were used as reference drugs. […] Similarly, compound 7, having a phenyl at position 2, has good activity against the three protozoa, ranking third in activity for T. vaginalis and forth against G. intestinalis and E. histolytica. […] These derivatives had groups H, COOCH3, Cl, and SO2CH3 at positions 2 and 3, substituents that induced the best response in 2-phenyl-2H-indazole derivatives. In addition, carboxylic acids 20 and 25 were of interest for comparative purposes with ester derivatives.
(§2) Trichomonas vaginalis strain GT3, Giardia intestinalis isolate IMSS:0981:1, and Entamoeba histolytica strain HM1-IMSS were used. Trophozoites of G. intestinalis were maintained in a TYI-S-33 medium supplemented with 10% calf serum and bovine bile. E. histolytica and T. vaginalis trophozoites were maintained in TYI-S-33 medium supplemented with 10% bovine serum. Briefly, 5 × 10^4 trophozoites of G. intestinalis or T. vaginalis, or 6 × 10^3 trophozoites of E. histolytica were incubated for 48 h at 37 °C with different concentrations of the compound to be tested, each added as solutions in DMSO. As a negative control, parasite cultures received an equivalent amount of DMSO only, while albendazole and metronidazole were included as positive controls. At the end of the treatment period, the cells were washed and subcultured for another 48 h in a fresh medium to which no drug was added. […] Experiments were carried out in triplicate and repeated at least twice.

[8] = system: Trichomonas vaginalis strain GT3; assay: as above; assay type: cell-based; conditions: for IC50: Trichomonas vaginalis, GT3, trophozoites, 48 h with compound then 48 h subculture without drug, read-out: IC50 (µM) T. vaginalis
Description: as §1, §2

[9] = system: Giardia intestinalis isolate IMSS:0981:1; assay: as above; assay type: cell-based; conditions: for IC50: Giardia duodenalis, trophozoites, 48 h with compound then 48 h subculture without drug, read-out: IC50 (µM) G. intestinalis
Description: as §1, §2

[10] = system: HeLa cells; assay: Cytotoxicity MTT assay; assay type: cell-based, human; conditions: Homo sapiens, 48 h exposure
Description: (§3) Biological assays on HaCaT and HeLa cell lines were conducted to gain insight into the cytotoxic effects of these derivatives on human cells, as compared with the effects observed on protozoa. Cellular viability was determined by MTT (3-(4,5-dimethylthiazol-2-yl)-2,5-diphenyltetrazolium bromide) assay. Compounds 18 and 23 were chosen considering their antiprotozoal and anticandidal effect, in addition to their COX-2 inhibitory activity. Additionally, compound 16 was considered as an unsubstituted reference.
(§4) HeLa (human cervical carcinoma) and HaCaT (immortalized human keratinocytes) cells were grown in DMEM (Invitrogen Corporation, Carlsbad, CA, USA) supplemented with 10% FBS (BioWest, Riverside, MO, USA), and maintained in standard culture conditions (37 °C, 95% humidity, and 5% CO2). Cells were allowed to grow to a density of 80% and then were harvested using sterile PBS/EDTA (pH 7.4) before starting every experiment. Cells were seeded in 96-well plates (7000 cells/well in 200 µL of DMEM). After 24 h the cells were exposed to test compounds dissolved in DMSO (J.T. Baker, Phillipsburg, NJ, USA) at different concentrations and diluted in 50 µL of DMEM, to reach 250 µL in the well. The exposure time was 48 h, and then viability was determined by MTT assay. The absorbance of formazan was determined for each well and its viability was related to the vehicle (100%). The IC50 was calculated from dose-response curve by non-linear fit using OriginPro 7.0 software (RockWare, Golden, CO, USA).

[11] = Cytotoxicity MTT assay; assay type: cell-based, human; conditions: human, 10 µM, 48 h exposure
Description: as §3, §4

[12] = system: HaCaT cells; assay: Cytotoxicity MTT assay; assay type: cell-based, human; conditions: Homo sapiens, HaCaT, 48 h exposure
Description: as §3, §4

[13] = system: Salmonella enterica serovar Typhi; assay: Disk diffusion susceptibility test; assay type: cell-based; conditions: 5 mg per disc, 37 °C, 24 h
[14] = system: Escherichia coli strain 042 (EAEC); assay: Disk diffusion susceptibility test; assay type: cell-based; conditions: 5 mg per disc, 37 °C, 24 h
[15] = positive control, ketoconazole 50 µg
[16] = 16 relative to 7, 20 compared to 13
[17] = read-out: % Viability (10 µM) HaCaT Cells
[18] = read-out: % Viability (10 µM) HeLa Cells

| Compound | MIC [1] [mM] | MIC [3] [mM] | Inhibition (positive / none) E. coli 933 [5] | IC50 [7] [µM] | IC50 [8] [µM] | IC50 [9] [µM] | viability at 48 h, 10 µM [11, 17] [%] | viability at 48 h, 10 µM [11, 18] [%] | Inhibition (positive / none) S. Typhi [13] | melting point [°C] | Inhibition (positive / none) E. coli 042 [14] | Inhibition (positive / none) C. albicans ([2]; 5 mg per disc, 37 °C, 24 h) | Inhibition (positive / none) C. glabrata ([4]; 5 mg per disc, 37 °C, 24 h) | inhibition at 10 µM [6] [%] | zone of inhibition at 5000 µg/disc [2] [mm] | zone of inhibition at 5000 µg/disc [4] [mm] | other results |
| --- | --- | --- | --- | --- | --- | --- | --- | --- | --- | --- | --- | --- | --- | --- | --- | --- | --- |
| CC(=O)N1CCN(c2ccc(OCC3COC(Cn4ccnc4)(c4ccc(Cl)cc4Cl)O3)cc2)CC1 (stereo not shown) [Ketoconazole, reference compound] | 0.079 (≈ 42 µg/mL) | 0.045 (≈ 23.9 µg/mL) |  |  |  |  |  |  |  |  |  |  |  |  |  |  | Inhibition (positive / none) C. albicans [2, 15]: +; Inhibition (positive / none) C. glabrata [4, 15]: + |
| c1ccc(-c2c3ccccc3nn2-c2ccccc2)cc1 [Compound 16, 2,3-Diphenyl-2H-indazole] |  |  | - | 0.303 ± 0.0105 | 0.0573 ± 0.0026 | 0.0518 ± 0.0052 | 95 ± 2.44 | 93 ± 4.57 | - | 107.4 to 107.9 | - | - | - |  |  |  | % of Inhibition of COX-2 [6]: Inactive; improvement in potency against T. vaginalis relative to the analog [8, 16]: two-fold; improvement in potency against G. intestinalis relative to the analog [9, 16]: two-fold; IC50 [10]: 125 ± 29.6 µM; IC50 [12]: 93.7 ± 17.3 µM |
| COC(=O)c1ccc(-n2nc3ccccc3c2-c2ccccc2)cc1 [Compound 18, Methyl 4-(3-phenyl-2H-indazol-2-yl) benzoate] | 15.2 (≈ 5000 µg/mL) | 3.81 (≈ 1250 µg/mL) | - | 0.0502 ± 0.0022 | 0.102 ± 0.0151 | 0.0959 ± 0.0022 | 96.2 ± 4.14 | 94.1 ± 3.31 | - | 152.4 to 154.9 | - | + | + | 50 ± 9.49 | 10 | 3 | times more active than metronidazole against G. intestinalis ([9]; ratio of IC50 values): 12.8 times |
| COC(=O)c1ccc(-c2c3ccccc3nn2-c2ccccc2)cc1 [Compound 23, Methyl 4-(2-phenyl-2H-indazol-3-yl) benzoate] | 15.2 (≈ 5000 µg/mL) | 3.81 (≈ 1250 µg/mL) | - | 0.0731 ± 0.0086 | 0.143 ± 0.0043 | 0.119 ± 0.0086 | 97.8 ± 5.19 | 93.7 ± 7.48 | - | 164.5 to 166.3 | - | + | + | 36.4 ± 1.7 | 13 | 4 |  |
| CS(=O)(=O)c1ccc(-c2c3ccccc3nn2-c2ccccc2)cc1 [Compound 26, 3-(4-(Methylsulfonyl)phenyl)-2-phenyl-2H-indazole] |  |  | - | 0.0459 ± 0.0081 | 0.184 ± 0.0162 | 0.106 ± 0.0081 |  |  | - | 206.9 to 208.8 | - | - | - | 41.2 ± 5.93 |  |  | improvement in potency against E. histolytica relative to the analog ([7]; 17 compared with 8, 20 compared to 13, 26 compared to 21): four-fold |
